According to ChEMBL document CHEMBL1201862, “PubChem BioAssay data set” (2004):
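Where inhibition never reached the appropriate level, the endpoint shown equals the highest concentration tested. Otherwise, values were interpolated linearly from a five-concentration, 48-hour dose response in 96-well plates. The concentration for 50% growth inhibition is given as GI50.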 Active and inactive are the calls of the source. No stated cut-off is given here; in the data, active = GI50 up to about 1.1 µM and inactive = higher.

Experiments:
Test in all cases: growth of human tumour cells (NCI), 48 h
[1] = test system: MDA-N
[2] = test system: RXF 393
[3] = test system: NCI-H522
[4] = test system: LOX IMVI
[5] = test system: UO-31
[6] = test system: SF-295
[7] = test system: HCC 2998
[8] = test system: ACHN
[9] = test system: OVCAR-4
[10] = test system: DU-145
[11] = test system: A549
[12] = test system: A498
[13] = test system: T47D
[14] = test system: SW-620
[15] = test system: Hs-578T
[16] = test system: EKVX
[17] = test system: SNB-19
[18] = test system: OVCAR-8
[19] = test system: KM12
[20] = test system: SK-MEL-5
[21] = test system: RPMI-8226
[22] = test system: NCI/ADR-RES
[23] = test system: SF-539
[24] = test system: MDA-MB-231
[25] = test system: SK-MEL-28
[26] = test system: NCI-H23
[27] = test system: SK-OV-3
[28] = test system: IGROV-1
[29] = test system: CAKI-1
[30] = test system: COLO 205
[31] = test system: SN12C
[32] = test system: U-251
[33] = test system: MCF7
[34] = test system: MDA-MB-435
[35] = test system: SK-MEL-2
[36] = test system: CCRF-CEM
[37] = test system: HT-29
[38] = test system: MOLT-4
[39] = test system: PC-3
[40] = test system: HOP-92
[41] = test system: TK-10
[42] = test system: K562
[43] = test system: UACC-257
[44] = test system: SR
[45] = test system: M14
[46] = test system: Malme-3M
[47] = test system: HL-60
[48] = test system: OVCAR-3
[49] = test system: OVCAR-5
[50] = test system: 786-0
[51] = test system: NCI-H460
[52] = test system: BT-549
[53] = test system: SF-268
[54] = test system: HCT-15
[55] = test system: HCT-116
[56] = test system: UACC-62
[57] = test system: HOP-62
[58] = test system: NCI-H226
[59] = test system: SNB-75

Question: `O=[N+]([O-])c1cc(C2(N3CCCCC3)CCCCC2)sc1Br` was tested. Which GI50 [1] did it give?
Answer: Its GI50 is 6.41 µM (inactive).

Question: And the GI50 [2]?
Answer: Its GI50 is 3.66 µM (inactive).

Question: And the GI50 [3]?
Answer: The GI50 was 2.14 µM (inactive).

Question: What about the GI50 [4] of the same compound?
Answer: Its GI50 is 2.82 µM (inactive).

Question: And the GI50 [5]?
Answer: Its GI50 is 12.1 µM (inactive).

Question: What about the GI50 [6] of the same compound?
Answer: The GI50 was 15.3 µM (inactive).

Question: What about the GI50 [7] of the same compound?
Answer: The GI50 was 1.74 µM (inactive).

Question: What about the GI50 [8] of the same compound?
Answer: Its GI50 is 3.98 µM (inactive).

Question: And the GI50 [9]?
Answer: The GI50 was 13 µM (inactive).

Question: And the GI50 [10]?
Answer: Its GI50 is 3.18 µM (inactive).

Question: And the GI50 [11]?
Answer: Its GI50 is 17.1 µM (inactive).

Question: What about the GI50 [12] of the same compound?
Answer: The GI50 was 5.92 µM (inactive).

Question: And the GI50 [13]?
Answer: Its GI50 is 1.87 µM (inactive).

Question: And the GI50 [14]?
Answer: Its GI50 is 4.09 µM (inactive).

Question: And the GI50 [15]?
Answer: The GI50 was 7.05 µM (inactive).

Question: And the GI50 [16]?
Answer: Its GI50 is 9.16 µM (inactive).

Question: And the GI50 [17]?
Answer: Its GI50 is 14.1 µM (inactive).

Question: What about the GI50 [18] of the same compound?
Answer: Its GI50 is 6.31 µM (inactive).

Question: What about the GI50 [19] of the same compound?
Answer: The GI50 was 6.49 µM (inactive).

Question: And the GI50 [20]?
Answer: Its GI50 is 5.04 µM (inactive).

Question: What about the GI50 [21] of the same compound?
Answer: Its GI50 is 1.74 µM (inactive).

Question: What about the GI50 [22] of the same compound?
Answer: Its GI50 is 3.09 µM (inactive).

Question: And the GI50 [23]?
Answer: Its GI50 is 2.52 µM (inactive).

Question: And the GI50 [24]?
Answer: Its GI50 is 11 µM (inactive).

Question: And the GI50 [25]?
Answer: Its GI50 is 5.41 µM (inactive).

Question: What about the GI50 [26] of the same compound?
Answer: The GI50 was 11.9 µM (inactive).

Question: What about the GI50 [27] of the same compound?
Answer: The GI50 was 16.3 µM (inactive).

Question: And the GI50 [28]?
Answer: The GI50 was 11.4 µM (inactive).

Question: What about the GI50 [29] of the same compound?
Answer: Its GI50 is 6 µM (inactive).

Question: What about the GI50 [30] of the same compound?
Answer: Its GI50 is 3.82 µM (inactive).

Question: What about the GI50 [31] of the same compound?
Answer: The GI50 was 5.15 µM (inactive).

Question: What about the GI50 [32] of the same compound?
Answer: Its GI50 is 6.01 µM (inactive).

Question: And the GI50 [33]?
Answer: The GI50 was 2.83 µM (inactive).

Question: And the GI50 [34]?
Answer: The GI50 was 4.78 µM (inactive).

Question: And the GI50 [35]?
Answer: Its GI50 is 7.06 µM (inactive).

Question: What about the GI50 [36] of the same compound?
Answer: The GI50 was 2.08 µM (inactive).

Question: What about the GI50 [37] of the same compound?
Answer: The GI50 was 3.87 µM (inactive).

Question: And the GI50 [38]?
Answer: Its GI50 is 1.8 µM (inactive).

Question: And the GI50 [39]?
Answer: Its GI50 is 4.06 µM (inactive).

Question: And the GI50 [40]?
Answer: The GI50 was 8.81 µM (inactive).

Question: What about the GI50 [41] of the same compound?
Answer: Its GI50 is 2.39 µM (inactive).

Question: What about the GI50 [42] of the same compound?
Answer: Its GI50 is 2.92 µM (inactive).

Question: What about the GI50 [43] of the same compound?
Answer: The GI50 was 2.04 µM (inactive).

Question: And the GI50 [44]?
Answer: The GI50 was 2.99 µM (inactive).

Question: And the GI50 [45]?
Answer: Its GI50 is 7.69 µM (inactive).

Question: What about the GI50 [46] of the same compound?
Answer: Its GI50 is 3.44 µM (inactive).

Question: And the GI50 [47]?
Answer: The GI50 was 2.34 µM (inactive).

Question: And the GI50 [48]?
Answer: The GI50 was 2.72 µM (inactive).

Question: What about the GI50 [49] of the same compound?
Answer: Its GI50 is 19.5 µM (inactive).

Question: And the GI50 [50]?
Answer: Its GI50 is 3.94 µM (inactive).

Question: What about the GI50 [51] of the same compound?
Answer: The GI50 was 14.4 µM (inactive).

Question: And the GI50 [52]?
Answer: The GI50 was 6.82 µM (inactive).

Question: What about the GI50 [53] of the same compound?
Answer: The GI50 was 7.5 µM (inactive).

Question: What about the GI50 [54] of the same compound?
Answer: The GI50 was 5.02 µM.

Question: And the GI50 [55]?
Answer: Its GI50 is 11.7 µM (inactive).

Question: And the GI50 [56]?
Answer: Its GI50 is 11.3 µM (inactive).

Question: And the GI50 [57]?
Answer: Its GI50 is 6 µM (inactive).

Question: And the GI50 [58]?
Answer: The GI50 was 3.33 µM (inactive).

Question: What does the source list for `Cc1cc(-c2nc3ccc(F)cc3s2)ccc1NC(=O)[C@H](C)N`?
Answer: GI50 [1]: 2.61 µM (inactive); GI50 [2]: 7.91 µM (inactive); GI50 [3]: 7.74 µM (inactive); GI50 [4]: 1.99 µM (inactive); GI50 [5]: 4.14 µM (inactive); GI50 [6]: 9.71 µM (inactive); GI50 [7]: 0.428 µM (active); GI50 [8]: 9.33 µM (inactive); GI50 [9]: 10.2 µM (inactive); GI50 [10]: 12.7 µM (inactive); GI50 [11]: 5.83 µM (inactive); GI50 [12]: 9.02 µM (inactive); GI50 [13]: 0.0559 µM (active); GI50 [14]: 3.83 µM (inactive); GI50 [15]: 10.8 µM (inactive); GI50 [59]: 11.8 µM (inactive); GI50 [16]: 8.38 µM (inactive); GI50 [17]: 14.3 µM (inactive); GI50 [18]: 11.6 µM (inactive); GI50 [19]: 3.97 µM (inactive); GI50 [20]: 12.9 µM (inactive); GI50 [21]: 3.11 µM (inactive); GI50 [22]: 13.2 µM (inactive); GI50 [23]: 6.32 µM (inactive); GI50 [24]: 10.4 µM (inactive); GI50 [25]: 15.4 µM (inactive); GI50 [26]: 12.9 µM (inactive); GI50 [27]: 13.6 µM (inactive); GI50 [28]: 2 µM (inactive); GI50 [29]: 8.18 µM (inactive); GI50 [30]: 9.77 µM (inactive); GI50 [31]: 14.8 µM (inactive); GI50 [32]: 3.48 µM (inactive); GI50 [33]: < 0.0186 µM (active); GI50 [34]: 2.49 µM (inactive); GI50 [35]: 12.4 µM (inactive); GI50 [36]: 1.64 µM (inactive); GI50 [37]: 2.56 µM (inactive); GI50 [38]: 2 µM (inactive); GI50 [39]: 11.9 µM (inactive); GI50 [40]: 10.7 µM (inactive); GI50 [43]: 5.04 µM (inactive); GI50 [44]: 2.07 µM (inactive); GI50 [45]: 1.95 µM (inactive); GI50 [46]: 21.3 µM (inactive); GI50 [47]: 2.07 µM (inactive); GI50 [48]: 8.59 µM (inactive); GI50 [49]: 4.56 µM (inactive); GI50 [50]: 4.66 µM (inactive); GI50 [51]: 2.14 µM (inactive); GI50 [52]: 13.7 µM (inactive); GI50 [53]: 10 µM (inactive); GI50 [54]: 3.79 µM; GI50 [55]: 3.28 µM (inactive); GI50 [56]: 1.88 µM (inactive); GI50 [57]: 8.22 µM (inactive); GI50 [58]: 2.7 µM (inactive)
